Reference: patent US20200166671A1, “LIPOIC ACID HYDROGELS” (UNIVERSIDADE DE SANTIAGO DE COMPOSTELA, priority 2017, published 2020)

Legend:
[1] = Demulcent loading of hydrogel discs functionalized with CD; assay type: physicochemical; details: 20° C., aqueous demulcent solution
Procedure: Next, a different demulcent was loaded in each disc functionalized with CD.
The weighed hydrogel discs were placed in 5 or 10 mL of aqueous polysorbate 80 solutions (0.2; 0.5 or 1 mg/mL) and kept at 20° C. under magnetic stirring (80 rpm) for 24 hours. Absorbance of the medium was monitored at 234 nm (Agilent […] UV/Vis spectrophotometer, Germany). The amount of loaded polysorbate 80 was estimated from the difference between the amounts in the loading medium before and after the loading tests.
The weighed hydrogel discs were placed in 5 or 10 mL of aqueous PEG4000 solutions (0.1 mg/mL), kept at 20° C. under magnetic stirring (80 rpm) for 48 hours. Aliquots of loading medium were analyzed by means of HPLC. The loaded amount of PEG4000 was estimated from the difference between the amounts in the loading medium before and after the loading tests.
(§1) The weighed hydrogel discs were introduced in vials containing 10 mL of aqueous ALA solution (saturated, ˜0.8 mg/mL). The vials remained under oscillating agitation (150 osc/min) at 20° C. At times 24 and 48 h, a sample of 3 mL of the loading solution was taken and absorbance was measured at 334 nm (Agilent 8453 UV/VIS, Germany). The amount of ALA loaded for every hydrogel was calculated by the difference between the initial content in the loading solution and the remaining content at the end of the test.
The loading results, measured in amount of demulcent for every gram of dry mass of hydrogel, are shown below: […]

[2] = Andrade et al., Exp Eye Res. 2014; cited from earlier work
[3] = Saturated aqueous ALA solution; assay type: physicochemical
Procedure: as §1

[4] = system: peroxidase; details: Andrade et al., Exp Eye Res. 2014; cited from earlier work

| Compound | amount of demulcent for every gram of dry mass of hydrogel ([1]; loading 24 h) | amount of demulcent for every gram of dry mass of hydrogel ([1]; loading 48 h) | tear production [2] | concentration of saturated aqueous ALA solution [3] | peroxidase activity [4] |
| --- | --- | --- | --- | --- | --- |
| O=C(O)CCCC[C@@H]1CCSS1 [α-lipoic acid] | 57 mg/g | 58 mg/g | increase in tear production | ~800 µg/mL | increases peroxidase activity |
| Polysorbate 80 | 1 mg/g |  |  |  |  |
